Peptide text beside a SMILES is read from it.
Legend:
OX40R-IgG1 = biological target: T1, OX40R-IgG1 (Homo sapiens, UniProt P43489); assay: Fluorescence quenching assay of OX40R-IgG1; type: binding
T1 construct: extracellular portion of human OX40R (amino acids 1-208 of SWISSPROT Acc. No P43489); human IgG1 constant region (hinge, CH2 and CH3); made in house; purified from the supernatant on protein G
T1 sequence (P43489 29-208): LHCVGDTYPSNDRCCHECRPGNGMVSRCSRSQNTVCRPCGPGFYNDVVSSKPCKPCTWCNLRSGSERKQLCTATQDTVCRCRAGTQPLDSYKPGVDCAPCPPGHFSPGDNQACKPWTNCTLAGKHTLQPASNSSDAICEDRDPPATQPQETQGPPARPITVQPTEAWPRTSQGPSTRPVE
Method: The fluorescence quenching assay was performed as previously described (Golabek A et al., 2000). OX40R-IgG1 (35 micrograms) was dissolved in 500 microliters of PBS and the fluorescence spectum was recorded at 295-420 nanometers with an excitation wavelength of 290 nanometers using a spectrofluorimeter (Perkin Elmer LS50B) with the slits set at 5 nanometers. Fluorescence spectra of human OX40R-IgG1 were then recorded in the presence of increasing concentrations (5-1000 nM) of P5 and P5-1 peptides after 15 minutes of equilibration. The fluorescence change at 336 nanometers was plotted versus peptide concentration and the resulting curves were analyzed by nonlinear regression fit with Prism® software (GraphPad).
The affinity of the peptides identified in Example 1 as inhibitor of OX40L-OX40R interaction was evaluated by fluorescence quenching spectroscopy, a technology allowing such measurements in solution, under native conditions and without beads or other supports. This method is based on monitoring the changes in the intrinsic fluorescence of a protein (OX40R-IgG1) upon its binding with another protein (P5 or P5-1). […]

[1] = biological target: T2, OX40L-OX40R interaction (OX40R-IgG1 / OX40L-CD8) (Homo sapiens, UniProt P43489); assay: Alphascreen-based competition assay (displacement of OX40L-CD8 from OX40R-IgG1); type: binding; conditions: for inhibition of binding of OX40R to OX40L (in words): Alphascreen-based competition assay
T2 sequence (P43489 29-208): T1 sequence (P43489 29-208)
Method: Alphascreen™ modified acceptor and donor beads were purchased (Biosignal Packard). OX40R-IgG1 and OX40L-CD8 fusion proteins were immobilized, respectively, onto protein A-conjugated acceptor beads and, by the means of a biotinylated anti-CD8 antibody, onto streptavidin-conjugated donor beads.
The binding assay was performed using Costar® 384-well white polystyrene plates (Corning). Each well of a 384-well plate contained a reaction mix having a volume of 25 microliters. Each of the five components of the reaction mix (OX40R-IgG1, OX40L-CD8, biotinylated anti-CD8, streptavidin-conjugated donor beads, and Protein A-conjugated acceptor beads) was added in a volume of 5 microliters. All dilutions were made in assay buffer (Phosphate Buffer Saline and 0.1% BSA), with or without dimethyl sulfoxide (DMSO).
In the standard assay, OX40-IgG1 and OX40L-CD8 were incubated together for 30 minutes, and then biotinylated anti-CD8 antibody (10 nM) was added. Following another incubation period of 30 minutes, streptavidin donor beads (20 μg/ml) and Protein A acceptor beads (20 μg/ml) were added to each individual well. The plate was counted 1 hour later using a Packard Fusion™ reader (Biosignal Packard) set at a read time of 1 second/well. Owing to the light sensitivity of the donor and acceptor beads, the experiments were carried out under blue light and all incubation periods were performed at room temperature. The plate was read at an excitation wavelength of 680 nanometers combined with a shorter emission wavelength of 520-620 nanometers.
All KD, IC50 and EC50 values were calculated using Prism® software (Graphpad Software). The transformation of IC50 values into Ki values was performed using the Cheng-Prusoff equation (Cheng Y C and Prusoff W H, 1973).
The ability of two known competitors of OX40L-OX40R interactions (untagged recombinant human soluble OX40L and suramin), which are themselves unable to generate an Alphascreen™ signal in this assay in absence of OX40L-CD8, to displace OX40L-CD8 from OX40R-IgG1 was investigated. The displacement experiments were performed, taking into consideration the approximate KD value, with a concentration of OX40L-CD8 (40 nM) that was 4 times greater than that of the OX40R-IgG1 (10 nM). Increasing concentrations of OX40L (3 μM-0.1 pM) or suramin (1 mM[…]1 nM) were added to a reaction mixture also containing OX40-IgG1 (10 nM) and OX40L-CD8 (40 nM). […] This latter value for suramin is similar to reported values for inhibition of TNF-α binding to the TNF receptor (Gray P W et al., 1990).
The soluble components (OX40-IgG1, OX40L-CD8 and biotinylated anti-CD8 antibody) were mixed at the concentration described before for the competition assays with OX40L and suramin (FIG. 4), together with various concentrations of each peptide in a 5 microliter volume into a first addition step. The streptavidin donor and Protein A acceptor beads were added 30 minutes later. The plates were incubated for 2 hours in the dark, at room temperature and with shaking, before reading at a long excitation wavelength of 680 nm combined with a shorter emission wavelength of 520-620 nanometers, as described in Example 1.

OX40R = biological target: T3, OX40R (Homo sapiens, UniProt P43489); conditions: literature value; read-out: Kd of OX40L (homotrimer) for OX40R; cited from earlier work
T3 sequence (P43489 29-277): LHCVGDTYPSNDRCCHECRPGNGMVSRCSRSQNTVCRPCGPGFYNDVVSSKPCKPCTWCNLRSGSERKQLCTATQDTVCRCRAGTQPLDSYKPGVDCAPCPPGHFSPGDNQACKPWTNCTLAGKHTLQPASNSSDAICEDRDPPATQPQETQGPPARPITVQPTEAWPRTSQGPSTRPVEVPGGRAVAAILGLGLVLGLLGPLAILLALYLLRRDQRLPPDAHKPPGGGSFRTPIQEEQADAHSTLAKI

`CC[C@H](C)[C@H](NC(=O)[C@H](CC(N)=O)NC(=O)[C@@H](NC(=O)[C@H](CCC(=O)O)NC(=O)[C@H](CCC(N)=O)NC(=O)[C@H](CO)NC(=O)[C@H](Cc1ccccc1)NC(=O)[C@H](Cc1ccc(O)cc1)NC(=O)CN)C(C)C)C(=O)N[C@@H](CO)C(=O)O` [P5-1, GYFSQEVNIS] (H-GYFSQEVNIS-OH; N-terminus and C-terminus assumed) showed a Kd (OX40R-IgG1) of ~0.0246 µM.
In the case of `CC[C@H](C)[C@H](N)C(=O)N[C@H](C(=O)N[C@@H](CC(N)=O)C(=O)N[C@@H](CS)C(=O)N[C@@H](CC(=O)O)C(=O)NCC(=O)N[C@@H](Cc1ccccc1)C(=O)N[C@@H](Cc1ccc(O)cc1)C(=O)N[C@@H](CC(C)C)C(=O)N[C@H](C(=O)N[C@@H](CO)C(=O)N[C@@H](CC(C)C)C(=O)N[C@@H](CCCCN)C(=O)NCC(=O)N[C@@H](Cc1ccc(O)cc1)C(=O)N[C@@H](Cc1ccccc1)C(=O)N[C@@H](CO)C(=O)N[C@@H](CCC(N)=O)C(=O)N[C@@H](CCC(=O)O)C(=O)N[C@H](C(=O)N[C@@H](CC(N)=O)C(=O)N[C@H](C(=O)N[C@@H](CO)C(=O)N[C@@H](CC(C)C)C(=O)N[C@@H](Cc1c[nH]cn1)C(=O)N[C@@H](Cc1ccc(O)cc1)C(=O)N[C@@H](CCC(N)=O)C(=O)N[C@@H](CCCCN)C(=O)N[C@@H](CC(=O)O)C(=O)N[C@@H](CCC(=O)O)C(=O)N[C@@H](CCC(=O)O)C(=O)O)[C@@H](C)CC)C(C)C)[C@@H](C)CC)[C@@H](C)CC` [P5] (H-IINCDGFYLISLKGYFSQEVNISLHYQKDEE-OH; N-terminus and C-terminus assumed), the “inhibition of binding of OX40R to OX40L (in words)” value [1] is reported as “micromolar range”.
For “EKGFILTSQKEDEIMKVQNNSVIINCDGFYL (human OX40R binding peptides) [P4, peptide corresponding to amino acids 72-102 of human OX40L]”, the “inhibition of binding of OX40R to OX40L (in words)” value [1] was “bind OX40R very poorly”.
Work on `Cc1ccc(C(=O)Nc2ccc(S(=O)(=O)O)c3cc(S(=O)(=O)O)cc(S(=O)(=O)O)c23)cc1NC(=O)c1cccc(NC(=O)Nc2cccc(C(=O)Nc3cc(C(=O)Nc4ccc(S(=O)(=O)O)c5cc(S(=O)(=O)O)cc(S(=O)(=O)O)c45)ccc3C)c2)c1` [suramin, Suramin, reference compound] yielded an IC50 ([1]; OX40-IgG1 10 nM, OX40L-CD8 40 nM, read-out: IC50 for competition of OX40L-CD8 binding) of 79 µM and a Ki ([1]; OX40-IgG1 10 nM, OX40L-CD8 40 nM, read-out: Ki (Cheng-Prusoff from IC50)) of 26.3 µM.
For “OX40L: recombinant human soluble OX40L, extracellular portion, prepared as GST fusion in baculovirus system; b9 value is for natural homotrimer”, the Kd (OX40R) is listed as 0.0002 to 0.0004 µM and the “-log IC50±SEM” value ([1]; OX40-IgG1 10 nM, OX40L-CD8 40 nM) is listed as 8.23±0.35.

— US7858765B2, “OX40R binding agents” (Merck Serono SA, priority 2002, dated 2010)
